Measured values: patent US20240327364A1, “THERAPEUTIC TARGETING OF GPR68 TO INDUCE FERROPTOSIS” (University Of Maryland, Baltimore, priority 2023, published 2024)

Legend:
U87 = test: Clonogenicity (crystal violet); assay type: cell-based, human; details: 12 days
Procedure: U87 cells were plated at 400 cells per well in a 6-well plate and on the next day were treated with increasing concentrations of OGM2 for 12 days. The doses were 0 uM (DMSO control) 0.1 μM 0.5 uM, 1 uM, 1.5 uM and 2 uM, as labelled. The plate was fixed with formalin and stained with crystal violet.

GPR4 = biological target: T1, GPR4 (Homo sapiens, UniProt P46093); test: SRE-luciferase assay, GPR4-transfected HEK293 cells; assay type: cell-based; details: OGM2 at 1, 10, or 100 μM
T1 construct: expressed in transfected cells
Procedure: 12-well plates of cells were transfected with 1 μg DNA using Lipofectamine 3000 with sre:luciferase and either the vector backbone, GFP, GPR68, GPR68-GFP, GPR4, or 336X-GFP. After 3 days, these cells were then lysed, and cell extracts were subjected to Steady-Glo luciferase assay (Promega™) according to the manufacturer's instructions. The results were normalized to cell titer, as determined using Cell Titer-Glo luminescence assay (Promega™). For some procedure, the cells were treated in serum-free medium, and were lysed on the third day.
Because GPR4, the paralog with highest homology with GPR68, was not covered in the initial GPCR profiling, whether OGM2 could inhibit GPR4 was tested by examining the effects of OGM2 on acid-induced serum responsive element (SRE) luciferase activity in HEK293 cells transfected with either GPR4 or GPR68. Mild acidification increased luciferase activity in GPR4 and GPR68 transfected cells above that of vector control.
Cas9^GPR68=GPR68 targeted sgRNA and Cas9; CTL=control; MoGPR68=GPR68 morpholino treatment. […] These cells were exposed to acidic media and assayed for luciferase activity as a readout of the receptor activity.

S6K1 = biological target: T2, S6K1 (Homo sapiens, UniProt P23443); test: KinomeScan; assay type: binding; details: read-out: % Control
T2 construct: purchased DiscoveRx (Fremont, CA)
T2 sequence (P23443 whole entry): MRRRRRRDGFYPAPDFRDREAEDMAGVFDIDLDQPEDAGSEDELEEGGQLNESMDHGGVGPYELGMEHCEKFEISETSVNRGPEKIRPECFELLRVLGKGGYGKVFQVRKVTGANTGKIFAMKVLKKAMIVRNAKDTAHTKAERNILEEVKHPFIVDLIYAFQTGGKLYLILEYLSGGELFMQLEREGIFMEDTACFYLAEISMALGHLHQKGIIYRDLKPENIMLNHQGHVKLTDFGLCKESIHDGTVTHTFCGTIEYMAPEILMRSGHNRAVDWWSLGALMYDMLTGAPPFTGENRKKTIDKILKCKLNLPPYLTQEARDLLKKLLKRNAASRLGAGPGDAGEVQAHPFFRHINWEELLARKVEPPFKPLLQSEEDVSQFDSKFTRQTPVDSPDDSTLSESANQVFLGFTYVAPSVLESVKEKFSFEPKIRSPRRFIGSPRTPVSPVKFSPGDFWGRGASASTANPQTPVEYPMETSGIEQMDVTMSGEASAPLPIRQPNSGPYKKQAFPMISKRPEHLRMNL

GPR99 = biological target: T3, GPR99 (Homo sapiens, UniProt Q96P68); test: GPCR Profiler; assay type: cell-based
T3 construct: host or cells: Chem-1 cells with promiscuous Gα15

GPR54 = biological target: T4, GPR54 (Homo sapiens, UniProt Q969F8); test: GPCR Profiler; assay type: cell-based
T4 construct: host or cells: Chem-1 cells with promiscuous Gα15
T4 sequence (Q969F8 whole entry, species assumed): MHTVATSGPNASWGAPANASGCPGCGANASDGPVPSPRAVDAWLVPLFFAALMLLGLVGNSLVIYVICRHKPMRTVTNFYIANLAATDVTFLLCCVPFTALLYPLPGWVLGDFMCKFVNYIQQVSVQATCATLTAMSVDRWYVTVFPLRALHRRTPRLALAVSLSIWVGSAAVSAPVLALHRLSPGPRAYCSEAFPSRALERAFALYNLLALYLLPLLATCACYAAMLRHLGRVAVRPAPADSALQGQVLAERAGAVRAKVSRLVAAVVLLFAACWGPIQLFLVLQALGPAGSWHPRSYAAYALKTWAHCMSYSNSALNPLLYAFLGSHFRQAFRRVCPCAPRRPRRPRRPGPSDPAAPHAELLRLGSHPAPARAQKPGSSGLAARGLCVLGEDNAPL

SGK3 = biological target: T5, SGK3 (Homo sapiens, UniProt Q96BR1); test: KinomeScan; assay type: binding; details: read-out: % Control
T5 construct: purchased DiscoveRx (Fremont, CA)

MELK = biological target: T6, MELK (Homo sapiens, UniProt Q14680); test: KinomeScan; assay type: binding; details: read-out: % Control
T6 construct: purchased DiscoveRx (Fremont, CA)

SRPK3 = biological target: T7, SRPK3 (Homo sapiens, UniProt Q9UPE1); test: KinomeScan; assay type: binding; details: read-out: % Control
T7 construct: purchased DiscoveRx (Fremont, CA)

PIP5K2B = biological target: T8, PIP5K2B (Homo sapiens, UniProt P78356); test: KinomeScan; assay type: binding; details: read-out: % Control
T8 construct: purchased DiscoveRx (Fremont, CA)

S1P3 = biological target: T9, S1P3 (Homo sapiens, UniProt Q99500); test: GPCR Profiler; assay type: cell-based
T9 construct: host or cells: Chem-1 cells with Gα15
T9 sequence (Q99500 whole entry, species assumed): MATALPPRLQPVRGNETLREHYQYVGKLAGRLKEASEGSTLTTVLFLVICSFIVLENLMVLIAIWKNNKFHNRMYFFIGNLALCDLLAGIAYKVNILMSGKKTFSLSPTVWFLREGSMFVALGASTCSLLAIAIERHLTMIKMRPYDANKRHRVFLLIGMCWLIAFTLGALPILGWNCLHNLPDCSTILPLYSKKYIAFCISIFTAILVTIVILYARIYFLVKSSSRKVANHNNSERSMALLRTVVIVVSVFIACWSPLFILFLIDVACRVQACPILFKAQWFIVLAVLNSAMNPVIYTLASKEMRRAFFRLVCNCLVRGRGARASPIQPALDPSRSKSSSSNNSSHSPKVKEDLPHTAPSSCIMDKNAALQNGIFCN

MrgD = biological target: T10, MrgD (Homo sapiens, UniProt Q8TDS7); test: GPCR Profiler; assay type: cell-based
T10 construct: host or cells: Chem-1 cells expressing Gα15
T10 sequence (Q8TDS7 whole entry, species assumed): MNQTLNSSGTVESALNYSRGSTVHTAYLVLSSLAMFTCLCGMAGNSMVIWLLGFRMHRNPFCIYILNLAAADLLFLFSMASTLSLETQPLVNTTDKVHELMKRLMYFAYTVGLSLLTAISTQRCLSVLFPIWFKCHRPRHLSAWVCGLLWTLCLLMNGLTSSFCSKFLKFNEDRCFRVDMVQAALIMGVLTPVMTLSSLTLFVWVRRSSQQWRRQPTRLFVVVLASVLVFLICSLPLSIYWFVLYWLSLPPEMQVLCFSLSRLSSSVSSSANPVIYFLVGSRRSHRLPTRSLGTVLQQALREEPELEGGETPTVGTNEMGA

NEK4 = biological target: T11, NEK4 (Homo sapiens, UniProt P51957); test: KinomeScan; assay type: binding; details: read-out: % Control
T11 construct: purchased DiscoveRx

CB1 = biological target: T12, CB1 (Homo sapiens, UniProt P21554); test: GPCR Profiler; assay type: cell-based
T12 construct: host or cells: Chem-1 cells with promiscuous Gα15
T12 sequence (P21554 whole entry, species assumed): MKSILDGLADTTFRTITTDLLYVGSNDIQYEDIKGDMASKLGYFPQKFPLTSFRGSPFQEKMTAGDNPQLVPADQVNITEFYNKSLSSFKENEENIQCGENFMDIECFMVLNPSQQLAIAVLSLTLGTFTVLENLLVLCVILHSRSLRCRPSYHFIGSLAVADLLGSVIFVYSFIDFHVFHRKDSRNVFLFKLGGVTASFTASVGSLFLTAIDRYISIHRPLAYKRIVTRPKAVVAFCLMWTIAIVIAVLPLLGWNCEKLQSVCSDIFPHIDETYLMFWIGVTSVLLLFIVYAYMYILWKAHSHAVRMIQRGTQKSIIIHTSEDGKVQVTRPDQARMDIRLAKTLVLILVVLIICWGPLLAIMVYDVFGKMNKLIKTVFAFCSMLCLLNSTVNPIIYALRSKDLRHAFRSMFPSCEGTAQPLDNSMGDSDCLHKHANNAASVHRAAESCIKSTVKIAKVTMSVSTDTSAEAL

5-HT6 = biological target: T13, 5-HT6 (Homo sapiens, UniProt P50406); test: GPCR Profiler; assay type: cell-based
T13 construct: host or cells: Chem-1 cells with promiscuous Gα15
T13 sequence (P50406 whole entry, species assumed): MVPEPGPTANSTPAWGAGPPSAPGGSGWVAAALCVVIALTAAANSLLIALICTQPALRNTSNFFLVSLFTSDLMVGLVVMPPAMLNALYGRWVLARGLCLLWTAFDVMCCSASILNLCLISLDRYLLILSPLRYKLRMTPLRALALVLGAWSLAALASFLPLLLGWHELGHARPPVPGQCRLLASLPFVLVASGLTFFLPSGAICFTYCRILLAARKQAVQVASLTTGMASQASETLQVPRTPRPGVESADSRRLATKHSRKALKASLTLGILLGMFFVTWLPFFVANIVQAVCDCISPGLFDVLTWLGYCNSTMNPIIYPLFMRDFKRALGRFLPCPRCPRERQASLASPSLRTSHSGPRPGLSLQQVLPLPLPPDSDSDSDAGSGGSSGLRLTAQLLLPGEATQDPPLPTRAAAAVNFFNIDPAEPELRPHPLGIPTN

CAMK2G = biological target: T14, CAMK2G (Homo sapiens, UniProt Q13555); test: KinomeScan; assay type: binding; details: read-out: % Control
T14 construct: purchased DiscoveRx (KinomeScan service)
T14 sequence (Q13555 whole entry): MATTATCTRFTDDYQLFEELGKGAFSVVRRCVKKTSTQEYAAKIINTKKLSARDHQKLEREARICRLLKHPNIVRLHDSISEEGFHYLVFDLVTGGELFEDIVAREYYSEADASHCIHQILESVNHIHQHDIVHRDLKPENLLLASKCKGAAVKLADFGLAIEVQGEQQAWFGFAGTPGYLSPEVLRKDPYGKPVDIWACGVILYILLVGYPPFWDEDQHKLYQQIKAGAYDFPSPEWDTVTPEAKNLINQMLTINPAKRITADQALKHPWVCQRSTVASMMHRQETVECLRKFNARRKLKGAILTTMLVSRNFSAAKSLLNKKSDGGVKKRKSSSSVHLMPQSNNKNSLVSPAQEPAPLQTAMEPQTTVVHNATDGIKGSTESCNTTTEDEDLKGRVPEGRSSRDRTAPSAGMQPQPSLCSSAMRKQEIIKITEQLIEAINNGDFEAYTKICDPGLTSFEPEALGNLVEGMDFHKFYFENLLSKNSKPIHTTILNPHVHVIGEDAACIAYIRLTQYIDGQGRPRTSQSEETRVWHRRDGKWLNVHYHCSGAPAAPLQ

MAP4K3 = biological target: T15, MAP4K3 (Homo sapiens, UniProt Q8IVH8); test: KinomeScan; assay type: binding; details: read-out: % Control
T15 construct: purchased DiscoveRx (Fremont, CA)

NDR2 = biological target: T16, NDR2 (Homo sapiens, UniProt Q9Y2H1); test: KinomeScan; assay type: binding; details: read-out: % Control
T16 construct: purchased DiscoveRx

C5aR = biological target: T17, C5aR (Homo sapiens, UniProt P21730); test: GPCR Profiler; assay type: cell-based
T17 construct: host or cells: Chem-1 cells with promiscuous Gα15
T17 sequence (P21730 whole entry, species assumed): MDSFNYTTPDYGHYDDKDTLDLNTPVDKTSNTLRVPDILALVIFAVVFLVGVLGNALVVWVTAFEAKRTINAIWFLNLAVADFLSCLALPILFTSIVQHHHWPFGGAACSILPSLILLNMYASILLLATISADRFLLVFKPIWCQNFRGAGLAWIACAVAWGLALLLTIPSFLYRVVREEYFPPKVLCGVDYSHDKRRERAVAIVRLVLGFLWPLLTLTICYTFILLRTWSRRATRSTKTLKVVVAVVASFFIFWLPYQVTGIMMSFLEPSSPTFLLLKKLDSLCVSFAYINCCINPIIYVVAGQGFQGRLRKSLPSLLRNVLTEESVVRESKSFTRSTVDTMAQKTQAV

[1] = biological target: T18, ABL1(Q252H)-phosphorylated (Homo sapiens, UniProt P00519, Q252H); test: KinomeScan; assay type: binding; details: read-out: % Control
T18 construct: purchased DiscoveRx

AMPK-alpha2 = biological target: T19, AMPK-alpha2 (Homo sapiens, UniProt P54646); test: KinomeScan; assay type: binding; details: read-out: % Control
T19 construct: purchased DiscoveRx (Fremont, CA)

FES = biological target: T20, FES (Homo sapiens, UniProt P07332); test: KinomeScan; assay type: binding; details: read-out: % Control
T20 construct: purchased DiscoveRx (Fremont, CA)

SYK = biological target: T21, SYK (Homo sapiens, UniProt P43405); test: KinomeScan; assay type: binding; details: read-out: % Control
T21 construct: purchased DiscoveRx (Fremont, CA)

5-HT4B = biological target: T22, 5-HT4B (Homo sapiens, UniProt Q13639); test: GPCR Profiler; assay type: cell-based
T22 construct: host or cells: Chem-1 cells with promiscuous Gα15
T22 sequence (Q13639 whole entry): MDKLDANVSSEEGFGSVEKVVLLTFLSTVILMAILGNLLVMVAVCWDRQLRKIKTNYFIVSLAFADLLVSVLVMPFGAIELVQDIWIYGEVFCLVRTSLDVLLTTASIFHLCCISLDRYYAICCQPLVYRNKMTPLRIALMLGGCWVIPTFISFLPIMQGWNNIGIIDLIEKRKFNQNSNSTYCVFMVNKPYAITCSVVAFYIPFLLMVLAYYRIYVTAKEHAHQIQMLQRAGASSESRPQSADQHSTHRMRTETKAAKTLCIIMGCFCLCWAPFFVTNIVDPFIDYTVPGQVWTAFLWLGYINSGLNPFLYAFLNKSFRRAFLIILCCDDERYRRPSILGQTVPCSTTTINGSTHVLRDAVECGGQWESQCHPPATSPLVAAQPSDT

A3 = biological target: T23, A3 (Homo sapiens, UniProt P0DMS8); test: GPCR Profiler; assay type: cell-based
T23 construct: host or cells: Chem-1 cells with promiscuous Gα15
T23 sequence (P0DMS8 whole entry): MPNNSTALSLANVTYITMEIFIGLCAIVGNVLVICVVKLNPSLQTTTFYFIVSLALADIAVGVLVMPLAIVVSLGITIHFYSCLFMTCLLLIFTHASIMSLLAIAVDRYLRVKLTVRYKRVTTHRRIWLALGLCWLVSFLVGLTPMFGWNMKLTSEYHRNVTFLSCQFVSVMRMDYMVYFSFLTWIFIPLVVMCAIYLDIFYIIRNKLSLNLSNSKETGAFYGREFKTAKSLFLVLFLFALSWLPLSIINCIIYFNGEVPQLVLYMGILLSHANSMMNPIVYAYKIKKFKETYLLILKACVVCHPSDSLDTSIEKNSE

P2Y1 = biological target: T24, P2Y1 (Homo sapiens, UniProt P47900); test: GPCR Profiler; assay type: cell-based
T24 construct: host or cells: Chem-1 cells expressing Gα15
T24 sequence (P47900 whole entry, species assumed): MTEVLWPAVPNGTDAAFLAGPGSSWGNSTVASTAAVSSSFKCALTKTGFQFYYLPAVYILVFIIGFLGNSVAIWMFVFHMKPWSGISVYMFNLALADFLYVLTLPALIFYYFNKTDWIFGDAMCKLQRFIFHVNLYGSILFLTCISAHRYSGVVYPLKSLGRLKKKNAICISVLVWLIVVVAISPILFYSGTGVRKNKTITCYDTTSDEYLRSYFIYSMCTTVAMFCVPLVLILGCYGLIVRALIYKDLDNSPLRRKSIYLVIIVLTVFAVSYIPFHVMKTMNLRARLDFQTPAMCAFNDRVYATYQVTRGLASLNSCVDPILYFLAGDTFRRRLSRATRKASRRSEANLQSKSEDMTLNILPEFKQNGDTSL

BMPR1A = biological target: T25, BMPR1A (Homo sapiens, UniProt P36894); test: KinomeScan; assay type: binding; details: read-out: % Control
T25 construct: purchased DiscoveRx (Fremont, CA)

LPA3 = biological target: T26, LPA3 (Homo sapiens, UniProt Q9UBY5); test: GPCR Profiler; assay type: cell-based
T26 construct: host or cells: Chem-1 cells with promiscuous Gα15
T26 sequence (Q9UBY5 whole entry, species assumed): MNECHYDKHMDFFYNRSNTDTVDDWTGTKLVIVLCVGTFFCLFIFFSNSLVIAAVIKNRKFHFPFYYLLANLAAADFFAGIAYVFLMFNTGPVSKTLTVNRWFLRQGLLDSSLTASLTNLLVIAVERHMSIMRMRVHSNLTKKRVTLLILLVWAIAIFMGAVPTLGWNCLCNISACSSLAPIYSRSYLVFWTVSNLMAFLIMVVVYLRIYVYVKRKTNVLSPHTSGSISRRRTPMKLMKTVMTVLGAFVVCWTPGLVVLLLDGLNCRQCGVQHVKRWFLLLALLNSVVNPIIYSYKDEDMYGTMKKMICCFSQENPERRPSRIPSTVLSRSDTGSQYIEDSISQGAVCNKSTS

TAOK1 = biological target: T27, TAOK1 (Homo sapiens, UniProt Q7L7X3); test: KinomeScan; assay type: binding; details: read-out: % Control
T27 construct: purchased DiscoveRx (Fremont, CA)

AAK1 = biological target: T28, AAK1 (Homo sapiens, UniProt Q2M2I8); test: KinomeScan; assay type: binding; details: read-out: % Control
T28 construct: purchased DiscoveRx

Compound: CCc1ccc2c(c1)C1(NN=C(c3ccccc3)S1)C(=O)N2 (stereo not shown) [OGM2]
- clonogenicity (U87): reduces clonogenicity of U87 glioblastoma cells
- acid-induced SRE-luciferase activity (GPR4): not inhibited

Compound: CCc1ccc2c(c1)C1(NN=C(c3cccc4ccccc34)S1)C(=O)N2 (stereo not shown) [OGM1, 5-ethyl-5′-naphthalen-1-ylspiro[1H-indole-3,2′-3H-1,3,4-thiadiazole]-2-one]
- remaining binding at 10 µM (S6K1): 93%
- Antagonism (GPR99; 10 uM): 0.5
- Agonism (GPR99; 12.5 uM): 6.5
- Antagonism (GPR54; 10 uM): −5.8
- Agonism (GPR54; 12.5 uM): −0.6
- remaining binding at 10 µM (SGK3): 56%
- remaining binding at 10 µM (MELK): 100%
- remaining binding at 10 µM (SRPK3): 100%
- remaining binding at 10 µM (PIP5K2B): 100%
- Antagonism (S1P3; 10 uM): −3.7
- Agonism (S1P3; 12.5 uM): 0.2
- Antagonism (MrgD; 10 uM): −2.2
- Agonism (MrgD; 12.5 uM): −0.1
- remaining binding at 10 µM (NEK4): 100%
- Antagonism (CB1; 10 uM): −6.8
- Agonism (CB1; 12.5 uM): −0.1
- Antagonism (5-HT6; 10 uM): −4.4
- Agonism (5-HT6; 12.5 uM): −0.7
- remaining binding at 10 µM (CAMK2G): 85%
- remaining binding at 10 µM (MAP4K3): 100%
- remaining binding at 10 µM (NDR2): 82%
- Antagonism (C5aR; 10 uM): −0.7
- Agonism (C5aR; 12.5 uM): 3.1
- remaining binding at 10 µM [1]: 94%
- remaining binding at 10 µM (AMPK-alpha2): 100%
- remaining binding at 10 µM (FES): 100%
- remaining binding at 10 µM (SYK): 98%
- Antagonism (5-HT4B; 10 uM): −24.1
- Agonism (5-HT4B; 12.5 uM): 4.1
- Antagonism (A3; 10 uM): 3.2
- Agonism (A3; 12.5 uM): −0.4
- Antagonism (P2Y1; 10 uM): −6.3
- Agonism (P2Y1; 12.5 uM): 1.7
- remaining binding at 10 µM (BMPR1A): 100%
- Antagonism (LPA3; 10 uM): 1.1
- Agonism (LPA3; 12.5 uM): 0.3
- remaining binding at 10 µM (TAOK1): 83%
- remaining binding at 10 µM (AAK1): 100%
